Each structure is given as a SMILES string. pKi: −log10 of the molar value. Some results are limits rather than exact numbers.

Assay [1] addresses Induced myeloid leukemia cell differentiation protein Mcl-1 (Homo sapiens, UniProt Q07820). The experiment in a line: Inhibition of MCL-1 (unknown origin) by fluorescence polarization competition assay.
In assay [2] the target is Apoptosis regulator Bcl-2 (Homo sapiens, UniProt P10415). As to the kind of experiment: Inhibition of BCL-2 (unknown origin) by fluorescence polarization competition assay. On the technique in general: Fluorescence polarisation rises when a labelled molecule tumbles more slowly, as on binding a larger partner.
Chain of Apoptosis regulator Bcl-2 (P10415 whole entry): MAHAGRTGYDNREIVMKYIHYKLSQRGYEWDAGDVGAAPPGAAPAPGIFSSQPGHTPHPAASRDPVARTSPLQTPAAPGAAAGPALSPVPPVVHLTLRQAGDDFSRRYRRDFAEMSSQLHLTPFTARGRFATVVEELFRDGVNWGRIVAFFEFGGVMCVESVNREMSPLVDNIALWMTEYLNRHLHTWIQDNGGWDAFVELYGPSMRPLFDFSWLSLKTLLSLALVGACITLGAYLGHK
The target in a further assay is Bcl-2-like protein 1 (Homo sapiens, UniProt Q07817). As to the kind of experiment: Inhibition of BCL-xL (unknown origin) by fluorescence polarization competition assay.
Chain of Bcl-2-like protein 1 (Q07817 whole entry): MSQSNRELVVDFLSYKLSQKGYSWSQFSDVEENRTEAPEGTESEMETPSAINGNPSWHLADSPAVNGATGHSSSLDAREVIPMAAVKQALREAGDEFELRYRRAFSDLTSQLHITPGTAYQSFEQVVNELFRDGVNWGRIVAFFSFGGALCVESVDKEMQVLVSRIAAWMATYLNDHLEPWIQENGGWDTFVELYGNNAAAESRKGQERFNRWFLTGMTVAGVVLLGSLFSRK

Chain of Induced myeloid leukemia cell differentiation protein Mcl-1 (Q07820 whole entry): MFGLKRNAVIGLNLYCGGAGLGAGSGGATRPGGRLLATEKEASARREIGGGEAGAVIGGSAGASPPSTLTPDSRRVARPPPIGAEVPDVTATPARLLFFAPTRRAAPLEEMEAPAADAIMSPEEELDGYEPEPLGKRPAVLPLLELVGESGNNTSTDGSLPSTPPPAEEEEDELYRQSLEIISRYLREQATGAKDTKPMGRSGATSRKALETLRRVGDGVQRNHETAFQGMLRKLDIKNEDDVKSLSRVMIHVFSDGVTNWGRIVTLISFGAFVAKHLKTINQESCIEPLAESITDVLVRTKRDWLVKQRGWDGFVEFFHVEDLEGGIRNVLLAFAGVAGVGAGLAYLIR

The term pKi denotes the Ki on a negative log10 scale, so that one unit is a factor of ten. A high value points to a small Ki. Take `Cc1cc(Oc2ccc(Cn3nc(C(=O)O)c4cc(Cl)ccc43)cc2)cc(C)c1Cl`: the pKi in assay [1] was 5.64.
`Cc1cc(Oc2ccc(Cn3nc4ccc(Cl)cc4c3C(=O)NS(=O)(=O)c3ccc(NCCc4ccncc4)c([N+](=O)[O-])c3)cc2)cc(C)c1Cl`: the values for the pKi (in assay [2]; at Bcl-2-like protein 1; in assay [1]) were 6.18, less than 5.00 and 5.75, respectively.
In the same order, the values of `Cc1cc(Oc2ccc(Cn3nc4ccc(Cl)cc4c3C(=O)NS(=O)(=O)c3ccc(NCc4ccncc4)c([N+](=O)[O-])c3)cc2)cc(C)c1Cl` are 5.82, less than 5.00 and 5.78.
Take `Cc1cc(Oc2ccc(Cn3nc4ccc(Cl)cc4c3C(=O)NS(=O)(=O)c3ccc([N+](=O)[O-])c(NCc4ccncc4)c3)cc2)cc(C)c1Cl`: the pKi in assay [2] is 6.15; at Bcl-2-like protein 1, less than 5.00; in assay [1], 5.87.
Taken in the same sequence, the figures for `Cc1cc(Oc2ccc(Cn3nc4ccc(Cl)cc4c3C(=O)NS(=O)(=O)c3ccc([N+](=O)[O-])c(NCCc4cccnc4)c3)cc2)cc(C)c1Cl` were 6.34, less than 5.00 and 5.84.
In the case of `Cc1cc(OCCCn2c(C(=O)O)nc3ccccc32)cc(C)c1Cl`, in assay [1], the pKi was less than 5.00.
In the case of `Cc1cc(Oc2ccc(Cn3nc4ccc(Cl)cc4c3C(=O)NS(=O)(=O)c3ccc([N+](=O)[O-])c(NCCc4ccco4)c3)cc2)cc(C)c1Cl`, the pKi in assay [2] is 6.08; on Bcl-2-like protein 1, less than 5.00; in assay [1], 5.67.
As to `Cc1cc(Oc2ccc(Cn3nc4ccc(Cl)cc4c3C(=O)NS(=O)(=O)c3ccc(NCc4ccco4)c([N+](=O)[O-])c3)cc2)cc(C)c1Cl`, the pKi was 6.24 in assay [2], less than 5.00 at Bcl-2-like protein 1 and 5.89 in assay [1].
The molecule `Cc1cc(OCCCn2nc3ccc(Cl)cc3c2C(=O)O)cc(C)c1Cl` showed a pKi in assay [1] of less than 5.00.
For `Cc1cc(Oc2ccc(Cn3nc4ccc(Cl)cc4c3C(=O)NS(=O)(=O)c3ccc([N+](=O)[O-])c(N4CCOCC4)c3)cc2)cc(C)c1Cl`, the pKi was 6.05 in assay [2], 5.18 on Bcl-2-like protein 1 and 5.64 in assay [1].
Consider `Cc1cc(Oc2ccc(Cn3nc4ccc(Cl)cc4c3C(=O)NS(=O)(=O)c3ccc([N+](=O)[O-])c(NCc4cccnc4)c3)cc2)cc(C)c1Cl`, for which the pKi in assay [2] is 5.91; at Bcl-2-like protein 1 it was less than 5.00; in assay [1] it was 6.00.
Taken in the same sequence, the figures for `Cc1cc(Oc2ccc(Cn3nc4ccc(Cl)cc4c3C(=O)NS(=O)(=O)c3ccc(Cl)cc3)cc2)cc(C)c1Cl` were 6.29, less than 5.00 and 5.92.
As to `Cc1cc(Oc2ccc(Cn3nc4ccc(Cl)cc4c3C(=O)NS(=O)(=O)c3ccc(NCCc4cccnc4)c([N+](=O)[O-])c3)cc2)cc(C)c1Cl`, the negative-log Ki (pKi) in assay [2] is 6.34; at Bcl-2-like protein 1, less than 5.00; in assay [1] it was 5.84.
In the case of `Cc1cc(Oc2ccc(Cn3nc4ccc(Cl)cc4c3C(=O)NS(=O)(=O)c3ccc([N+](=O)[O-])c(NCc4ccn(C)n4)c3)cc2)cc(C)c1Cl`, the results for the pKi (in assay [2]; at Bcl-2-like protein 1; in assay [1]) were 6.15, 5.13 and 5.71, respectively.
Taken in the same sequence, the figures for `Cc1cc(Oc2ccc(Cn3nc4ccc(Cl)cc4c3C(=O)NS(=O)(=O)c3ccc(NCCc4ccco4)c([N+](=O)[O-])c3)cc2)cc(C)c1Cl` were 6.21, 5.47 and 5.89.
In the case of `Cc1cc(Oc2ccc(Cn3nc4ccc(Cl)cc4c3C(=O)NS(=O)(=O)c3ccc([N+](=O)[O-])c(NCCc4ccncc4)c3)cc2)cc(C)c1Cl`, the results for the negative logarithm of the Ki (pKi) in assay [2] and in assay [1] were 6.11 and 5.85, respectively.
With `Cc1cc(Oc2ccc(Cn3nc4ccc(Cl)cc4c3C(=O)NS(=O)(=O)c3ccc(N4CCOCC4)c([N+](=O)[O-])c3)cc2)cc(C)c1Cl`, the negative logarithm of the Ki (pKi) in assay [2] was 6.28; at Bcl-2-like protein 1, 5.10; in assay [1], 5.88.
For `Cc1cc(Oc2ccc(Cn3nc4ccc(Cl)cc4c3C(=O)NS(=O)(=O)c3ccc(NCCN4CCOCC4)c([N+](=O)[O-])c3)cc2)cc(C)c1Cl`, the negative logarithm of the Ki (pKi) was 6.38 in assay [2] and 5.79 in assay [1].
Turning to `Cc1cc(Oc2ccc(Cn3nc4ccc(Cl)cc4c3C(=O)NS(=O)(=O)c3ccc(NCc4ccn(C)n4)c([N+](=O)[O-])c3)cc2)cc(C)c1Cl`, the pKi is 6.22 in assay [2], 5.46 at Bcl-2-like protein 1 and 5.80 in assay [1].
Consider `Cc1cc(Oc2ccc(Cn3nc4ccc(Cl)cc4c3C(=O)NS(=O)(=O)c3ccc(NCc4cccnc4)c([N+](=O)[O-])c3)cc2)cc(C)c1Cl`, for which the figures for the pKi (in assay [2]; on Bcl-2-like protein 1; in assay [1]) were 5.93, 5.35 and 5.95, respectively.
Taken in the same sequence, the figures for `Cc1cc(Oc2ccc(Cn3nc4ccc(Cl)cc4c3C(=O)NS(=O)(=O)c3ccc([N+](=O)[O-])c(NCc4ccco4)c3)cc2)cc(C)c1Cl` were 6.02, less than 5.00 and 5.77.
Consider `Cc1cc(OCCn2nc3ccc(Cl)cc3c2C(=O)O)cc(C)c1Cl`, for which the pKi in assay [1] is less than 5.00.
